Reference: PubChem BioAssay AID330 (DTP/NCI, 2004)
Inconclusive results and toxic doses are left out. How the source made its calls: active means survival T/C of 150% or more; inactive means T/C below 125% in these data. Square brackets hold non-standard residues; d marks the D form. Peptide text beside a SMILES is read from it. * marks the point of attachment. ξ: configuration not given here. Cbz = O=C(OCc1ccccc1)*; OBn = c1ccc(CO*)cc1; Bn = c1ccc(C*)cc1; ξC = NC(CS)C(=O)O

Tested on: P388 leukemia ip, CD2F1 mice, survival T/C
Assay: NCI In Vivo Anticancer Drug Screen. Data for tumor model P388 Leukemia (intraperitoneal) in CD2F1 (CDF1) mice
Settings: endpoint: median survival time, higher = longer survival
Procedure, shortened: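 Mice carrying the transplanted tumor received test compound or vehicle. Survival was recorded in each group, and the value is the treated-group measurement divided by that of the vehicle-treated control group.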

[1] = dose: 25.0 mg/kg/injection, schedule: Q01DX009 (ip), vehicle: saline with Tween-80
[2] = dose: 50.0 mg/kg/injection, schedule: Q01DX009 (ip), vehicle: saline with Tween-80
[3] = dose: 50.0 mg/kg/injection, schedule: Q01DX009 (ip), vehicle: Klucel (hydroxypropylcellulose) (HPC)
[4] = dose: 100.0 mg/kg/injection, schedule: Q01DX009 (ip), vehicle: Klucel (hydroxypropylcellulose) (HPC)
[5] = dose: 200.0 mg/kg/injection, schedule: Q01DX009 (ip), vehicle: Klucel (hydroxypropylcellulose) (HPC)
[6] = dose: 100.0 mg/kg/injection, schedule: Q04DX003 (ip), vehicle: saline
[7] = dose: 50.0 mg/kg/injection, schedule: Q01DX005 (ip), vehicle: Klucel (hydroxypropylcellulose) (HPC)
[8] = dose: 50.0 mg/kg/injection, schedule: Q01DX009 (ip), vehicle: saline
[9] = dose: 100.0 mg/kg/injection, schedule: Q01DX009 (ip), vehicle: saline
[10] = dose: 200.0 mg/kg/injection, schedule: Q01DX009 (ip), vehicle: saline

Measured: T/C

Clc1ccccc1/C=C/C=C1c2ccccc2-c2ccccc21
inactive: dose: 12.5 mg/kg/injection, schedule: Q01DX009 (ip), vehicle: saline with Tween-80 90 % of control | [1] 104 % of control | [2] 113 % of control | dose: 100.0 mg/kg/injection, schedule: Q04DX003 (ip), vehicle: saline with Tween-80 95 % of control | dose: 200.0 mg/kg/injection, schedule: Q04DX003 (ip), vehicle: saline with Tween-80 109 % of control | dose: 400.0 mg/kg/injection, schedule: Q04DX003 (ip), vehicle: saline with Tween-80 109 % of control

COC(=O)C1=C(C(=O)OC)C2C=CC1C1C(Br)C(Br)C21 (stereo not given)
inactive: [3] 100 % of control | [4] 102 % of control | [5] 100 % of control

CN(C)P1(=O)NCC(C)(C)CO1 (stereo not given)
inactive: dose: 50.0 mg/kg/injection, schedule: Q01DX005 (ip), vehicle: saline 104 % of control | dose: 100.0 mg/kg/injection, schedule: Q01DX005 (ip), vehicle: saline 96 % of control | dose: 200.0 mg/kg/injection, schedule: Q01DX005 (ip), vehicle: saline 96 % of control

O=[N+]([O-])c1cc([N+](=O)[O-])c2ccccc2c1NS(=O)(=O)c1ccc(Br)cc1
inactive: [1] 103 % of control | [2] 117 % of control

CC(=O)O/N=C/c1cc[n+](C)cc1
inactive: dose: 25.0 mg/kg/injection, schedule: Q04DX003 (ip), vehicle: saline 105 % of control | dose: 50.0 mg/kg/injection, schedule: Q04DX003 (ip), vehicle: saline 101 % of control | [6] 90 % of control

CCOC(=O)/C=C/CC1CCNC1 (stereo not given)
inactive: dose: 60.0 mg/kg/injection, schedule: Q01DX005 (ip), vehicle: saline 100 % of control | dose: 120.0 mg/kg/injection, schedule: Q01DX005 (ip), vehicle: saline 100 % of control | dose: 240.0 mg/kg/injection, schedule: Q01DX005 (ip), vehicle: saline 106 % of control

COc1cc(C2c3cc4c(cc3CCN2C(=O)c2ccccc2)OCO4)cc(OC)c1OC (stereo not given)
inactive: [7] 93 % of control | dose: 100.0 mg/kg/injection, schedule: Q01DX005 (ip), vehicle: Klucel (hydroxypropylcellulose) (HPC) 91 % of control | dose: 200.0 mg/kg/injection, schedule: Q01DX005 (ip), vehicle: Klucel (hydroxypropylcellulose) (HPC) 93 % of control

O=C(O)Cc1csc(=S)n1-c1ccccc1
inactive: dose: 50.0 mg/kg/injection, schedule: Q01DX005 (ip), vehicle: saline with Tween-80 97 % of control | dose: 100.0 mg/kg/injection, schedule: Q01DX005 (ip), vehicle: saline with Tween-80 102 % of control | dose: 200.0 mg/kg/injection, schedule: Q01DX005 (ip), vehicle: saline with Tween-80 90 % of control

O=C(CNC(=O)C(CSCc1ccccc1)NC(=O)OCc1ccccc1)NCC(=O)OCc1ccccc1 (stereo not drawn) (Cbz-[ξC](Bn)-Gly-Gly-OBn)
inactive: dose: 12.5 mg/kg/injection, schedule: Q01DX005 (ip), vehicle: Klucel (hydroxypropylcellulose) (HPC) 102 % of control | dose: 25.0 mg/kg/injection, schedule: Q01DX005 (ip), vehicle: Klucel (hydroxypropylcellulose) (HPC) 95 % of control | [7] 102 % of control

N#CC1C(=O)NC(=S)NC1c1ccc(Cl)cc1 (stereo not given)
inactive: [3] 94 % of control | [4] 101 % of control

Cc1ccc(NC(=S)NC(=O)/C=C/c2ccccc2)cc1Cl
inactive: dose: 25.0 mg/kg/injection, schedule: Q01DX009 (ip), vehicle: saline 100 % of control | [8] 105 % of control | [9] 98 % of control | [10] 97 % of control

CSc1nc(-c2ccccc2)cc(=O)[nH]1
inactive: dose: 25.0 mg/kg/injection, schedule: Q01DX009 (ip), vehicle: Klucel (hydroxypropylcellulose) (HPC) 106 % of control | [3] 118 % of control | [8] 102 % of control | [4] 112 % of control | [9] 108 % of control | [5] 94 % of control | [10] 102 % of control

C[C@H]1CC(=O)SC1=O
inactive: dose: 25.0 mg/kg/injection, schedule: Q04DX002 (ip), vehicle: saline 100 % of control | dose: 50.0 mg/kg/injection, schedule: Q04DX002 (ip), vehicle: saline 93 % of control

CCCCCCC[CH2][Sn]([Cl])([CH2]CCCCCCC)[O][Sn]([CH2]CCCCCCC)([CH2]CCCCCCC)[O]C
inactive: [6] 101 % of control | dose: 200.0 mg/kg/injection, schedule: Q04DX003 (ip), vehicle: saline 96 % of control | dose: 400.0 mg/kg/injection, schedule: Q04DX003 (ip), vehicle: saline 98 % of control

CCOC(=O)N(C)C(=O)CN(C=O)c1ncc([N+](=O)[O-])s1
inactive: dose: 100.0 mg/kg/injection, schedule: Q01DX001 (ip), vehicle: saline 101 % of control | dose: 200.0 mg/kg/injection, schedule: Q01DX001 (ip), vehicle: saline 101 % of control | dose: 400.0 mg/kg/injection, schedule: Q01DX001 (ip), vehicle: saline 100 % of control
